This passage reports EC50 results from patent US8575168B2, “Compounds and compositions as modulators of GPR119 activity” (IRM LLC, priority 2009, dated 2013).

The target in the assay is T1, human GPR119 (Homo sapiens, UniProt Q8TDV5).
T1 construct: expressed in transfected cells
T1 sequence (Q8TDV5 1-335): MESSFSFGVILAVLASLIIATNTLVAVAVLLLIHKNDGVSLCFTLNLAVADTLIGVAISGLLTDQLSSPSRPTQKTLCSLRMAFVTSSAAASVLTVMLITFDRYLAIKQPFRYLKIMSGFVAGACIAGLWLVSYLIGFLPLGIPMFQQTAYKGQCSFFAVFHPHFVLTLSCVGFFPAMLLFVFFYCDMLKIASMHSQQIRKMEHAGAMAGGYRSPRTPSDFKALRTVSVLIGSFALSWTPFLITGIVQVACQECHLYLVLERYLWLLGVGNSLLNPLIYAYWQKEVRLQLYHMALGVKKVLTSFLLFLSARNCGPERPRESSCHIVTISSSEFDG
As to the kind of experiment: Cyclic AMP Assay in Stable Cell Line (HTRF). The class given is cell-based. Particulars: Flp-In-CHO-hGPR119 cells, intracellular cAMP, 30 minutes at 37° C., 1 mM IBMX. As for the experimental part: Flp-In-CHO cells (Invitrogen, Cat. #R758-07) are maintained in Ham's F12 medium supplemented with 10% fetal bovine serum, 1% antibiotic mixture and 2 mM L-glutamine. The cells are transfected with a DNA mixture containing human GPR119 in pcDNA5/FRT vector and the pOG44 vector (1:9) using Fugene6 (Roche), according to the manufacturer's instruction. After 48 hours, the medium is changed to medium supplemented with 400 μg/ml hygromycin B to initiate the selection of stably transfected cells.
To test the activity of compounds of the invention, Flp-In-CHO-hGPR119 cells are harvested and resuspended in DMEM plus 3% lipid-depleted fetal bovine serum. Forth μl of cells are plated in 384 well plates at a density of 15,000 cells/well. IBMX (3-isobutyl-1-methyl-xanthine) is added to the cells to a final concentration of 1 mM, followed by the addition of 500 nl of the compound to be tested. The cells are incubated at 37° C. for 30 minutes. Equal volume (20 μl) of the HTRF reagents, anti-cAMP-Cryptate and cAMP-XL665, are added to the cells. The plates are incubated at room temperature for 1 hour and read on a HTRF reader according to the manufacturer's instruction.
(Time-resolved FRET reads energy transfer from a long-lived donor to a nearby acceptor.)
Compound `CC(C)c1ccc(CN2CC(Oc3ccc(N4CCN(S(C)(=O)=O)CC4)nc3)C2)cc1` [Example A1, 1-(5-(1-(4-isopropylbenzyl)azetidin-3-yloxy)pyridin-2-yl)-4-(methylsulfonyl)piperazine] registered an EC50 of 118 nM. `CC(C)c1ccc(CN2CC(Oc3ccc(N4CCN(C(=O)OCc5ccccc5)CC4=O)nc3)C2)cc1` [Example A2, Benzyl 4-(5-(1-(4-isopropylbenzyl)azetidin-3-yloxy)pyridin-2-yl)-3-oxopiperazine-1-carboxylate] came in with an EC50 of 979 nM. The value for `CS(=O)(=O)N1CCN(c2cnc(OC3CN(Cc4ccc(C(F)(F)F)cc4)C3)cn2)C(=O)C1` [Example A3] was 20 nM; that for `CS(=O)(=O)N1CCN(c2cnc(OC3CN(Cc4ccc(OC(F)(F)F)cc4)C3)cn2)C(=O)C1` [Example A4, 4-(methylsulfonyl)-1-(5-(1-(4-(trifluoromethoxy)benzyl)azetidin-3-yloxy)pyrazin-2-yl)piperazin-2-one] was 12 nM; that for `CS(=O)(=O)N1CCC(c2cc(F)c(OC3CCN(Cc4ccc(C(F)(F)F)cc4)CC3)c(F)c2)CC1` [Example A5] was 9 nM. As to `CS(=O)(=O)N1CCN(c2cnc(OC3CN(Cc4ccc(C(F)(F)F)cc4)C3)cn2)CC1` [Example A6, 2-(4-(methylsulfonyl)piperazin-1-yl)-5-(1-(4-(trifluoromethyl)benzyl)azetidin-3-yloxy)pyrazine], the EC50 was determined as 69 nM. `CS(=O)(=O)N1CCC(c2cc(F)c(OC3CN(Cc4ccc(C(F)(F)F)cc4)C3)c(F)c2)CC1` [Example A7, 4-(3,5-difluoro-4-(1-(4-(trifluoromethyl)benzyl)azetidin-3-yloxy)phenyl)-1-(methylsulfonyl)piperidineine]: the midpoint of the response, the EC50, lay at 13 nM. `CS(=O)(=O)N1CCN(c2ccc(OC3CN(Cc4ccc(OC(F)(F)F)cc4)C3)cn2)CC1` [Example A8] yielded an EC50 of 70 nM. Compound `CS(=O)(=O)N1CCN(c2ccc(OC3CN(Cc4ccc(C(F)(F)F)cc4)C3)cn2)CC1` [Example A9] displayed an EC50 of 38 nM.

The compound `CC(C)c1ccc(CN2CC(Oc3cnc(N4CCN(C(=O)OCc5ccccc5)CC4)cn3)C2)cc1` [Example A10] yielded an EC50 of 666 nM. As for `CC(C)c1ccc(CN2CC(Oc3cnc(N4CCN(S(C)(=O)=O)CC4)cn3)C2)cc1` [Example A11], the EC50 came out at 22 nM. The compound `COc1ccc(CN2CC(Oc3ccc(N4CCN(S(C)(=O)=O)CC4)nc3)C2)cc1` [Example A12] yielded an EC50 of 341 nM. The value for `Cc1ccc(CN2CC(Oc3ccc(N4CCN(S(C)(=O)=O)CC4)nc3)C2)cc1` [Example A14] was 238 nM. On to `CS(=O)(=O)N1CCN(c2ccc(OC3CN(Cc4ccc(Cl)cc4)C3)cn2)CC1` [Example A15], for which the EC50 was determined as 134 nM. The value for `CS(=O)(=O)N1CCN(c2ccc(OC3CN(Cc4cccc(C(F)(F)F)c4)C3)cn2)CC1` [Example A16] was 884 nM; that for `CS(=O)(=O)N1CCN(c2ccc(OC3CN(Cc4ccc(C(F)(F)F)cc4)C3)cn2)C(=O)C1` [Example A17] was 26 nM.

Compound `CC(C)c1ccc(CN2CC(Oc3ccc(N4CCN(S(C)(=O)=O)CC4=O)nc3)C2)cc1` [Example A18] showed an EC50 of 11 nM.

The compound `CC(C)c1ccc(CN2CC(Oc3cnc(N4CCN(S(C)(=O)=O)CC4=O)cn3)C2)cc1` [Example A19] showed an EC50 of 12 nM. For the compound `CCCS(=O)(=O)N1CCN(c2ccc(OC3CN(Cc4ccc(C(F)(F)F)cc4)C3)cn2)C(=O)C1` [Example A20], a half-maximal response (EC50) required 9 nM.

On to `CCCS(=O)(=O)N1CCN(c2ccc(OC3CN(Cc4ccc(C(F)(F)F)cc4)C3)cn2)CC1` [Example A21], for which the midpoint of the response, the EC50, lay at 39 nM.

In turn, `CC(C)c1ccc(CN2CC(Oc3ccc(N4CCN(S(C)(=O)=O)CC4)cc3)C2)cc1` [Example A22] yielded an EC50 of 116 nM. Consider `CC(Cc1ccc(C(F)(F)F)cc1)N1CC(Oc2c(F)cc(C3CCN(S(C)(=O)=O)CC3)cc2F)C1` (stereo not drawn) [Example A24], for which the EC50 was found to be 177 nM.

`CCC(c1ccc(C(F)(F)F)cc1)N1CC(Oc2c(F)cc(C3CCN(S(C)(=O)=O)CC3)cc2F)C1` (stereo not drawn) [Example A25] displayed an EC50 of 246 nM. For the compound `CS(=O)(=O)N1CCC(c2cc(F)c(OC3CN(Cc4ncc(C(F)(F)F)cc4Cl)C3)c(F)c2)CC1` [Example A26], a half-maximal effect (EC50) was put at 330 nM.

For `CS(=O)(=O)N1CCC(c2cc(F)c(OC3CN(Cc4ncc(C(F)(F)F)cn4)C3)c(F)c2)CC1` [Example A27], the EC50 came out at 764 nM.

The compound `CS(=O)(=O)N1CCC(c2cc(F)c(OC3CN(Cc4ccc(C5(F)COC5)cc4)C3)c(F)c2)CC1` [Example A28] showed an EC50 of 49 nM. The figure for `CS(=O)(=O)N1CCC(c2cc(F)c(OC3CN(C(CO)c4ccc(C(F)(F)F)cc4)C3)c(F)c2)CC1` (stereo not drawn) [Example A29] is 1090 nM; for `CS(=O)(=O)N1CCC(c2cc(F)c(OC3CN(Cc4ccc5ccccc5c4)C3)c(F)c2)CC1` [Example A30] it is 135 nM. For the compound `CS(=O)(=O)N1CCC(c2cc(F)c(OC3CN(Cc4cccc5ccccc45)C3)c(F)c2)CC1` [Example A31], the EC50 turned out to be 652 nM. The value for `CS(=O)(=O)N1CCN(c2cc(F)c(OC3CN(Cc4ccc(C(F)(F)F)cc4)C3)c(F)c2)CC1` [Example A32] was 145 nM; that for `CS(=O)(=O)N1CCN(c2cc(F)c(OC3CN(Cc4ccc(C(F)(F)F)cc4)C3)c(F)c2)C(=O)C1` [Example A33] was 331 nM. The value for `CS(=O)(=O)N1CC=C(c2cc(F)c(OC3CN(Cc4ccc(C(F)(F)F)cc4)C3)c(F)c2)CC1` [Example A34] was 12 nM. `O=C(N1CC=C(c2cc(F)c(OC3CN(Cc4ccc(C(F)(F)F)cc4)C3)c(F)c2)CC1)C(F)(F)F` [Example A35] had an EC50 of 688 nM. In turn, `O=S(=O)(C1CCOCC1)N1CCC(c2cc(F)c(OC3CN(Cc4ccc(C(F)(F)F)cc4)C3)c(F)c2)CC1` [Example A36] came in with an EC50 of 28 nM.

`CC(C)(C)OC(=O)N1CCC(S(=O)(=O)N2CCC(c3cc(F)c(OC4CN(Cc5ccc(C(F)(F)F)cc5)C4)c(F)c3)CC2)CC1` [Example A37]: the 50% effective concentration (EC50) was found to be 325 nM.

As for `O=S(=O)(C1CCNCC1)N1CCC(c2cc(F)c(OC3CN(Cc4ccc(C(F)(F)F)cc4)C3)c(F)c2)CC1` [Example A38], a half-maximal response (EC50) required 458 nM.

As for `CC(C)(C)OC(=O)N1CCC(S(=O)(=O)N2CCC(c3cc(F)c(OC4CN(Cc5ccc(C(F)(F)F)cc5)C4)c(F)c3)CC2)C1` (stereo not drawn) [Example A39], the EC50 was 214 nM.

On to `O=S(=O)(C1CCNC1)N1CCC(c2cc(F)c(OC3CN(Cc4ccc(C(F)(F)F)cc4)C3)c(F)c2)CC1` (stereo not drawn) [Example A40], for which a half-maximal effect (EC50) was put at 576 nM.

As to `O=S(=O)(CCCO)N1CCC(c2cc(F)c(OC3CN(Cc4ccc(C(F)(F)F)cc4)C3)c(F)c2)CC1` [Example A41], the EC50 was found to be 36 nM. The value for `CS(=O)(=O)N1CCN(c2ncc(OC3CN(Cc4ccc(C(F)(F)F)cc4)C3)cn2)CC1` [Example A42] was 149 nM. The figure for `CS(=O)(=O)N1CCN(c2ccc(OC3CN(Cc4ccc(C(F)(F)F)cc4)C3)c(F)c2)CC1` [Example A43] is 115 nM; for `CS(=O)(=O)N1CCC(c2cc(F)c(OC3CCN(Cc4ccc(C(F)(F)F)nc4)CC3)c(F)c2)CC1` [Example A44] it is 38 nM.

For the compound `CS(=O)(=O)N1CCC(c2cc(F)c(OC3CCN(Cc4cccc(C(F)(F)F)c4)CC3)c(F)c2)CC1` [Example A45], the EC50 amounted to 48 nM. Consider `CS(=O)(=O)N1CCC(c2cc(F)c(OC3CCN(Cc4nc(C(F)(F)F)no4)CC3)c(F)c2)CC1` [Example B1, 5-((4-(2,6-Difluoro-4-(1-(methylsulfonyl)piperidin-4-yl)phenoxy)piperidin-1-yl)methyl)-3-(trifluoromethyl)-1,2,4-oxadiazole], for which a half-maximal response (EC50) required 7 nM.

Compound `CC(C)(F)c1noc(CN2CCC(Oc3c(F)cc(C4CCN(S(C)(=O)=O)CC4)cc3F)CC2)n1` [Example B2, 5-((4-(2,6-difluoro-4-(1-(methylsulfonyl)piperidin-4-yl)phenoxy)piperidin-1-yl)methyl)-3-(2-fluoropropan-2-yl)-1,2,4-oxadiazole] had a concentration for a half-maximal effect (EC50) of 28 nM. The value for `CC(F)(F)c1noc(CN2CCC(Oc3c(F)cc(C4CCN(S(C)(=O)=O)CC4)cc3F)CC2)n1` [Example B3, 5-((4-(2,6-difluoro-4-(1-(methylsulfonyl)piperidin-4-yl)phenoxy)piperidin-1-yl)methyl)-3-(1,1-difluoroethyl)-1,2,4-oxadiazole] was 16 nM. For the compound `CS(=O)(=O)N1CCN(c2cnc(OC3CCN(Cc4nc(C(F)(F)F)no4)CC3)cn2)CC1` [Example B4, 5-((4-(5-(4-(Methylsulfonyl)piperazin-1-yl)pyrazin-2-yloxy)piperidin-1-yl)methyl)-3-(trifluoromethyl)-1,2,4-oxadiazole], a half-maximal response (EC50) required 757 nM. The figure for `CS(=O)(=O)N1CCC(c2cc(F)c(OC3CCN(Cc4nc(C(F)F)no4)CC3)c(F)c2)CC1` [Example B5] is 49 nM.

As a reminder, the EC50 is the concentration giving half of the maximal effect. Low values mean greater potency, high ones weaker potency.
